This is an account of results in US9663495B2 (YUHAN CORPORATION, priority 2013, dated 2017).

The target of assay [1] is T1, GPR119 (Homo sapiens, UniProt Q8TDV5).
T1 construct: host or cells: CHO-K1 (GPR119 CRE-bla, doxycycline-induced)
T1 sequence (Q8TDV5 1-335): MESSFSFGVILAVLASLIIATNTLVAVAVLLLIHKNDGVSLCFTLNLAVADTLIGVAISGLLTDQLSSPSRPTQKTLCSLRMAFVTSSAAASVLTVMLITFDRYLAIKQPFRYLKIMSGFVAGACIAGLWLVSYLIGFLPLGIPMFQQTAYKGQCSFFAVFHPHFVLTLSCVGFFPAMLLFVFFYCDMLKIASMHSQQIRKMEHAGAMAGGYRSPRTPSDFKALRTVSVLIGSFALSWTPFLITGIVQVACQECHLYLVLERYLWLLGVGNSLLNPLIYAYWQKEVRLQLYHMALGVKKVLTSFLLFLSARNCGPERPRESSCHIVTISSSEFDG
The assay is described as follows: cAMP Accumulation Assay (GPR119 CRE-bla CHO-K1 cells, LiveBLAzer-FRET B/G). In kind it is cell-based. To be noted: for EC50: 5 hours incubation; for Emax (Fold): maximum activity, response ratio versus non-treated control group. The procedure: 32 μl of an assay medium (DMEM supplemented with GlutaMax™ 99%, dialyzed FBS 1%, non-essential amino acid 1 mM, HEPES 25 mM, penicillin 100 U/ml, and streptomycin 100 μg/ml) was added to each well of a 384 black well plate and then the GPR119 CRE-bla CHO-K1 cells (Invitrogen) were seeded in 1×10^4 cells per well. Doxycycline was dissolved in the assay medium in the concentration of 1 μg/ml. The resulting solution (4 μl) was added to each well, which was then incubated in a 5% CO 2 incubator at 37° C. for about 20 to 24 hours. Each test compounds were diluted with the assay medium to prepare 10 samples, which have concentrations ranging from […], respectively. Each samples (8 μl) was added to each well, which was then incubated in a 5% CO2 incubator at 37° C. for 5 hours. In case of the control group, the well was treated with a solution (8 μl) prepared by diluting dimethyl sulfoxide (DMSO) in the assay medium to 1%. The substrate mixture (8 μl) was added to each well, which was then left under darkness at room temperature for 2 hours. The substrate mixture contains the followings: 1 mM LiveBLAzer™-FRET B/G(CCF4-AM) substrate 6 μl, solution B 60 μl, solution C 904 μl, and solution D 30 μl.
Fluorescence intensity was determined under the wavelength conditions of 400 nm/465 nm (excitation/emission) for the blue channel and 400 nm/535 nm (excitation/emission) for the green channel, with the fluorescence microplate reader (SpectraFluor Plus. TECAN). The net activity of each well was calculated by subtracting the average value of the cell-free control group from the value of the unstimulated (i.e., non-treated) control group or the stimulated (i.e., test compound-treated) group at each wavelength. MBX-2982 (Metabolex) was used as a control drug. The response ratio was calculated by dividing the net signal ratio (465 nm/535 nm) of the control drug or the test compound by the net signal ratio (465 nm/535 nm) of the non-treated control group. The relative ratio (R.R) was calculated by dividing the maximum activity [Emax (fold)] of the test compound (i.e., % activity in comparison with the background) by the maximum activity [Emax (fold)] of the control drug (MBX-2982) [Emax (% RR)=(Emax of the test compound/Emax of MBX-2982)×100]. EC50 (half maximal effective concentration) was calculated using the software for statistical analysis “Prism 5.0 (GraphPad)”, based on the values obtained according to concentrations of the test compounds.

The target of assay [2] is T1, GPR119. The assay is described as above. To be noted: (Emax of the test compound/Emax of MBX-2982)x100, 5 hours incubation. In kind it is cell-based.

A word on the EC50: it is the concentration needed to bring the measured effect to its halfway point. A higher EC50 goes with lower potency in that assay. In the case of `CCOC(=O)n1ncn(-c2ccc(-c3cnc(N4CCN(c5ncc(CC)cn5)C[C@@H]4C)c(C#N)c3)cc2F)c1=O` [Example 24, (S)-ethyl 4-(4-(5-cyano-6-(4-(5-ethylpyrimidin-2-yl)-2-methylpiperazin-1-yl)pyridin-3-yl)-2-fluorophenyl)-5-oxo-4,5-dihydro-1H-1,2,4-triazol-1-carboxylate], in assay [1], the EC50 was found to be 4.5 nM and the “Emax (Fold)” value is recorded as 3.6 Fold. For the same molecule, the “Emax (% RR)” value in assay [2] worked out at 124.6 % RR.

Regarding `CCc1cnc(N2CCN(c3ncc(-c4ccc(-n5cnn(CC(C)(C)C#N)c5=O)c(F)c4)cc3C#N)[C@@H](C)C2)nc1` [Example 25, (S)-5-(4-(1-(2-cyano-2-methylpropyl)-5-oxo-1H-1,2,4-triazol-4(5H)-yl)-3-fluorophenyl)-2-(4-(5-ethylpyrimidin-2-yl)-2-methylpiperazin-1-yl)nicotinonitrile], in assay [1], the EC50 stood at 2.6 nM and the “Emax (Fold)” value is on record as 3.3 Fold. The “Emax (% RR)” value in assay [2] was 116.0 % RR.

For the molecule `CCc1cnc(N2CCN(c3ncc(-c4ccc(-n5cnn(CCNC(C)=O)c5=O)c(F)c4)cc3C#N)[C@@H](C)C2)nc1` [Example 26, (S)—N-(2-(4-(4-(5-cyano-6-(4-(5-ethylpyrimidin-2-yl)-2-methylpiperazin-1-yl)pyridin-3-yl)-2-fluorophenyl)-5-oxo-4,5-dihydro-1H-1,2,4-triazol-1-yl)ethyl)acetamide], in assay [1], a half-maximal response (EC50) required 20 nM and the “Emax (Fold)” value worked out at 3.4 Fold. Further, in assay [2], the “Emax (% RR)” value was determined as 112.5 % RR.

Consider `CCc1cnc(N2CCN(c3ncc(-c4ccc(-n5cnn(CN6CCN(C)CC6)c5=O)c(F)c4)cc3C#N)[C@@H](C)C2)nc1` [Example 27, (S)-2-(4-(5-ethylpyrimidin-2-yl)-2-methylpiperazin-1-yl)-5-(3-fluoro-4-(1-((4-methylpiperazin-1-yl)methyl)-5-oxo-1H-1,2,4-triazol-4(5H)-yl)phenyl)nicotinonitrile], for which, in assay [1], the EC50 was 3.1 nM and the “Emax (Fold)” value was 4.0 Fold. Further, the “Emax (% RR)” value in assay [2] is on record as 149.4 % RR.

Turning to `CCc1cnc(N2CCN(c3ncc(-c4ccc(-n5cnn(CN6CCCC6)c5=O)c(F)c4)cc3C#N)[C@@H](C)C2)nc1` [Example 28, (S)-2-(4-(5-ethylpyrimidin-2-yl)-2-methylpiperazin-1-yl)-5-(3-fluoro-4-(5-oxo-1-(pyrrolidin-1-ylmethyl)-1H-1,2,4-triazol-4(5H)-yl)phenyl)nicotinonitrile], in assay [1], the midpoint of the response, the EC50, lay at 4 nM and the “Emax (Fold)” value is on record as 3.9 Fold. Besides, in assay [2], the “Emax (% RR)” value was 145.6 % RR.

Turning to `CCc1cnc(N2CCN(c3ncc(-c4cc(F)c(-n5cnn(C)c5=O)cc4F)cc3C#N)[C@@H](C)C2)nc1` [Example 29, (S)-5-(2,5-difluoro-4-(1-methyl-5-oxo-1H-1,2,4-triazol-4(5H)-yl)phenyl)-2-(4-(5-ethylpyrimidin-2-yl)-2-methylpiperazin-1-yl)nicotinonitrile], in assay [1], the EC50 was 1.5 nM and the “Emax (Fold)” value is recorded as 3.1 Fold. Further, in assay [2], the “Emax (% RR)” value was 110.1 % RR.

With `CCc1cnc(N2CCN(c3ncc(-c4ccc(-n5cnn(C(C)C)c5=O)c(F)c4)cc3C#N)CC2)nc1` [Example 30, 2-(4-(5-ethylpyrimidin-2-yl)piperazin-1-yl)-5-(3-fluoro-4-(1-isopropyl-5-oxo-1H-1,2,4-triazol-4(5H)-yl)phenyl)nicotinonitrile], in assay [1], the response was half-maximal at 1.5 nM (EC50) and the “Emax (Fold)” value stood at 3.8 Fold. Also, in assay [2], the “Emax (% RR)” value amounted to 130.9 % RR.

As to `CCc1cnc(N2CCN(c3ncc(-c4ccc(-n5cnn(CCOC)c5=O)c(F)c4)cc3C#N)CC2)nc1` [Example 31, 5-(4-(1-(2-methoxyethyl)-5-oxo-1H-1,2,4-triazol-4(5H)-yl)-3-fluorophenyl)-2-(4-(5-ethylpyrimidin-2-yl)piperazin-1-yl)nicotinonitrile], in assay [1], the concentration for a half-maximal effect (EC50) came to 10 nM and the “Emax (Fold)” value came out at 3.4 Fold. In addition, the “Emax (% RR)” value in assay [2] was determined as 148.7 % RR.

With `CCc1cnc(N2CCN(c3ncc(-c4ccc(-n5cnn(C[C@H](O)CO)c5=O)c(F)c4)cc3C#N)CC2)nc1` [Example 36, (S)-5-(4-(1-(2,3-dihydroxypropyl)-5-oxo-1H-1,2,4-triazol-4(5H)-yl)-3-fluorophenyl)-2-(4-(5-ethylpyrimidin-2-yl)piperazin-1-yl)nicotinonitrile], in assay [1], the concentration for a half-maximal effect (EC50) amounted to 13.2 nM and the “Emax (Fold)” value was found to be 4.3 Fold. Also, in assay [2], the “Emax (% RR)” value worked out at 118.1 % RR.

For the molecule `CCc1cnc(N2CCN(c3ncc(-c4ccc(-n5cnn(C)c5=O)cc4)cc3C#N)CC2)nc1` [Example 39, 2-(4-(5-ethylpyrimidin-2-yl)piperazin-1-yl)-5-(4-(1-methyl-5-oxo-1H-1,2,4-triazol-4(5H)-yl)phenyl)nicotinonitrile], in assay [1], the EC50 stood at 3.8 nM and the “Emax (Fold)” value stood at 3.9 Fold. The “Emax (% RR)” value in assay [2] is recorded as 133.6 % RR.

Turning to `CCc1cnc(N2CCN(c3ncc(-c4ccc(-n5cnn([C@H]6CCNC6)c5=O)cc4)cc3C#N)CC2)nc1` [Example 42, (S)-2-(4-(5-ethylpyrimidin-2-yl)piperazin-1-yl)-5-(4-(5-oxo-1-(pyrrolidin-3-yl)-1H-1,2,4-triazol-4(5H)-yl)phenyl)nicotinonitrile], in assay [1], a half-maximal response (EC50) required 21 nM and the “Emax (Fold)” value worked out at 3.0 Fold. In addition, in assay [2], the “Emax (% RR)” value is 109.3 % RR.

On to `CC(C)c1nc(N2CCN(c3ncc(-c4ccc(-n5cnn(C)c5=O)c(F)c4)cc3C#N)CC2)no1` [Example 45, 5-(3-fluoro-4-(1-methyl-5-oxo-1H-1,2,4-triazol-4(5H)-yl)phenyl)-2-(4-(5-isopropyl-1,2,4-oxadiazol-3-yl)piperazin-1-yl)nicotinonitrile], for which, in assay [1], the EC50 was 7.3 nM and the “Emax (Fold)” value was determined as 4.2 Fold. For the same molecule, the “Emax (% RR)” value in assay [2] was found to be 144.7 % RR.

With `CC(C)c1nc(N2CCN(c3ncc(-c4ccc(-n5cnn(C(C)C)c5=O)c(F)c4)cc3C#N)CC2)no1` [Example 46, 5-(3-fluoro-4-(1-isopropyl-5-oxo-1H-1,2,4-triazol-4(5H)-yl)phenyl)-2-(4-(5-isopropyl-1,2,4-oxadiazol-3-yl)piperazin-1-yl)nicotinonitrile], in assay [1], the EC50 came out at 4.2 nM and the “Emax (Fold)” value worked out at 3.9 Fold. For the same molecule, the “Emax (% RR)” value in assay [2] is reported as 133.3 % RR.

For the molecule `COCn1ncn(-c2ccc(-c3cnc(N4CCN(c5noc(C(C)C)n5)CC4)c(C#N)c3)cc2)c1=O` [Example 48, 2-(4-(5-isopropyl-1,2,4-oxadiazol-3-yl)piperazin-1-yl)-5-(4-(1-(methoxymethyl)-5-oxo-1H-1,2,4-triazol-4(5H)-yl)phenyl)nicotinonitrile], in assay [1], the EC50 is 16 nM and the “Emax (Fold)” value amounted to 3.0 Fold. For the same molecule, the “Emax (% RR)” value in assay [2] is reported as 109.1 % RR.

Regarding `CCCn1ncn(-c2ccc(-c3cnc(N4CCN(c5noc(C(C)C)n5)CC4)c(C#N)c3)cc2F)c1=O.Cl` [Example 49, 5-(3-fluoro-4-(5-oxo-1-propyl-1H-1,2,4-triazol-4(5H)-yl)phenyl)-2-(4-(5-isopropyl-1,2,4-oxadiazol-3-yl)piperazin-1-yl)nicotinonitrile hydrochloride], in assay [1], a half-maximal effect (EC50) was put at 7.3 nM and the “Emax (Fold)” value amounted to 4.2 Fold. In addition, the “Emax (% RR)” value in assay [2] is 144.7 % RR.

With `CC(C)n1ncn(-c2ccc(-c3cnc(N4CCC(N(C)C(=O)OC(C)(C)C)CC4)c(C#N)c3)cc2F)c1=O` [Example 58, tert-butyl 1-(3-cyano-5-(3-fluoro-4-(1-isopropyl-5-oxo-1H-1,2,4-triazol-4(5H)-yl)phenyl)pyridin-2-yl)piperidin-4-yl(methyl)carbamate], in assay [1], the EC50 stood at 16 nM and the “Emax (Fold)” value is given as 2.6 Fold. Besides, the “Emax (% RR)” value in assay [2] came to 105.4 % RR.
